# Structures can show the parent of a compound that is named as a salt.
# Legend:
# [1] = test system: anti-TSHR antibodies (IgG class); assay: Adenoviral animal model for GD: detection of anti-TSHR antibodies by ELISA; type: in vivo, DR3tg mice
# Protocol: (§1) DR3tg mice were injected subcutaneously in the flank region with 22.5 pmol, 225 pmol and 2250 pmol ATX-GD-59 or control treatment on days −15, −13 and −11 respectively, followed by 3 injections of 22.5 nmol ATX-GD-59 (top dose/peptide) or control treatment on days −8, −6 and −4 (dose escalation schedule). Alterations in top doses, and correspondingly in dose escalation doses, are indicated per experiment.
# Anti-TSHR antibodies (IgG class) against purified recombinant TSHR-ECD (Chesapeake-Perl) were measured using ELISA. […] The signal was developed with tetramethylbenzidine (TMB).
# (§2) Alterations in top doses, and correspondingly in dose escalation doses, are indicated per experiment. […] New osmotic pumps were implanted after 4 weeks. […] On day 0, mice were immunized by intramuscular injection with 10^9 or 10^10 Ad-TSHR viral particles and the immunization was repeated three weeks later. […] Mice were euthanized 5 weeks after the first immunization to obtain blood, thyroid and spleen samples. TSHR-induced splenocyte proliferation, cytokine secretion and anti-TSHR antibody levels were assessed as described below.
# Anti-TSHR antibodies (IgG class) against purified recombinant TSHR-ECD (Chesapeake-Perl) were measured using ELISA. […] The signal was developed with tetramethylbenzidine.
# The signal was developed with tetramethylbenzidine (TMB).
# Alterations in top doses, and correspondingly in dose escalation doses, are indicated per experiment. On day 0, mice were immunised by intramuscular injection with 10^9 Ad-TSHR or Ad-LacZ viral particles and the immunisation was repeated three weeks later. Five weeks after the first immunisation, blood and spleens were collected.
# [2] = test system: TSHR-specific splenocyte proliferation; assay: Adenoviral animal model for GD: TSHR-specific splenocyte proliferation; type: in vivo, DR3tg mice; settings: 10^9 Ad-TSHR; ATX-GD-459 15 nmol top dose; MMI 500 μg daily s.c. pump; to be interpreted with caution
# Protocol: as §1, §2
# Total thyroxine (T4) = assay: Detection of hyperthyroidism: total thyroxine (T4) in serum by ELISA; type: in vivo, DR3tg mice
# Protocol: Total thyroxine (T4) was measured in undiluted mouse serum (10 μl) using the CBI mouse/rat thyroxine ELISA kit (Calbiotech, Spring Valley, Calif., USA) according to the manufacturer's instructions. T4 values were computed from standards in the kit and expressed as μg/dl.
# as §2, with “experiment. Starting on the day of the first peptide treatment until termination of the experiment, mice were treated either MMI or propranolol.” for “experiment.”
# Total thyroxine (T4) was measured in undiluted mouse serum (10 μl) using the CBI mouse/rat thyroxine ELISA kit (Calbiotech, Spring Valley, Calif., USA) according to the manufacturer's instructions. T4 values were computed from standards in the kit and expressed as μg/dl. In addition to serum T4 determinations, thyroid histology was used as a parameter for hyperthyroidism. Thyroid glands were fixed in 10% neutral buffered formalin (pH 7.5), processed to sections and stained with hematoxylin and eosin.
# [3] = Propranolol levels in mouse plasma by LC-MSMS; type: in vivo, DR3tg mice; settings: 10 mg/kg/day IP; 60-90 minutes post-dose; weeks 0 and 5; FIG. 18
# Protocol: Blood samples were collected between 60 and 90 minutes post-dose and individual plasma levels compared between W0 and W5.
# [4] = test system: TSHR-induced T cell proliferation; assay: Ex vivo tolerization experiment: TSHR-induced proliferation of LN cells and splenocytes after peptide pretreatment; type: in vivo, DR3tg mice; settings: vs control-treated; s.c. dose escalation schedule; top dose 5D-K1 100 μg, 9B-N 33 μg, ATX-GD-59 15 nmol/peptide; 10 days after parental peptide/CFA immunization
# Protocol: DR3tg mice were injected subcutaneously in the flank region with 0.1 μg, 1 μg and 10 μg peptides on days −15, −13 and −11 respectively, followed by 3 injections of 100 μg (top dose/peptide) soluble peptide (5D-K1 or 9B-N) on days −8, −6 and −4 (dose escalation schedule). The ATX-GD-59 is an equimolar mix of the peptides 5D-K1 (SEQ ID NO:1) and 9B-N (SEQ ID NO:2) and the top dose mentioned (nmol) is per peptide in the cocktail. A peptide dose of 100 ug corresponds to ˜45 nmol as both systems been used in different experiments. The peptides were administered subcutaneous in PBS. Alterations in top doses/peptide, and correspondingly in dose escalation doses, are indicated per experiment. On day 0, the mice were immunized subcutaneously in the base of the tail with 50 μg corresponding to the parental peptide (non-modified 5D and/or 9B) emulsified in Complete Freund adjuvants (CFA; 2 mg/ml Mycobacterium tuberculosis H37RA (Difco Laboratories, Michigan, US) in Incomplete Freund adjuvant (Difco)) (50 μg peptide in 100 μL CFA (100 μg H37RA)/injection). Ten days after immunization, draining LN and spleens were harvested. LN cells and splenocytes were isolated and cultured in X-vivo 15 medium supplemented with 2 mM L-glutamine, 50 U/mL penicillin and 50 U/mL streptomycin (all Lonza, Verviers, Belgium) in 96-well flat bottom plates. To investigate antigen-induced cell proliferation, 0.5×10^6 cells/well were cultured (200 μL/well) for 72 hours with TSHR-ECD in a concentration range of 0-25 μg/mL or with 12.5 μg/mL purified protein derivative (PPD; immunisation control; Statens serum institut, Copenhagen, Denmark). After 72 hours in a 37° C. incubator with 5% CO2, 60 μL of cell supernatant was harvested and frozen. 20 μL/well of tritiated thymidine (PerkinElmer, Zaventem, Belgium) were then added to the cells to obtain a final concentration of 1 μCi/well. The cells were incubated at 37° C. and 5% CO2, and after 16 h, plates were frozen. Thawed plates were harvested and read on a β-counter (Wallac 1450 Microbeta Trilux Liquid Scintillation Counter) to assess cell proliferation.
# DR3tg or DR4tg mice were injected subcutaneously in the flank region with 0.1 μg, 1 μg and 10 μg of peptide on days −15, −13 and −11 respectively, followed by 3 injections of 33, 75 or 100 μg peptide (depending on top dose, see Figure legends) on days −8, −6 and −4 (dose escalation schedule). Alterations in top doses, and correspondingly in dose escalation doses, are indicated per experiment. On day 0, the mice were immunised subcutaneously in the base of the tail with 50 μg antigen (non-modified parental 15-mer peptide) emulsified in CFA (peptide/CFA). […] Thawed plates were harvested and read with β-counter (Wallac 1450 Microbeta Trilux Liquid Scintillation Counter) to assess the cell proliferation.
# [5] = test system: Antigen-specific T cell hybridomas with fixed or not fixed VAVY or BM14 cells (APCs); assay: Antigen Processing Independent Presentation System (APIPS) assay; type: cell-based; settings: 25 μg/ml peptide; fixed or fresh VAVY (DR3) or BM14 (DR4) APCs; 48 h; IL-2 ELISA
# Protocol: 5×10^4 T cell hybridoma clones specific for RNB-5 (clone 50+35) or RNB-4 (clone 164+455) and TSHR were cultured in presence of TSHR and RNB-5D-K1 or RNB-4K-GKK in combination with 5×10^4 human DR3 expressing antigen presenting B cells (VAVY) (clone 50) or with DR4 expressing antigen presenting B cells (BM14) (Clone 35, 164, 455). Antigen-Presenting Cells (APC) were viable or previously fixed with 0.5% paraformaldehyde prior to addition to the culture wells. After 48 h of co-culture, the supernatants were harvested and analysed by ELISA to assess levels of IL-2 secretion. Results from representative clones are presented.
# Antigen-specific T cell hybridomas were tested for their reactivity to the peptides, presented by fixed or not fixed VAVY or BM14 cells (=APCs). 5×10^4 cells from the individual clones were cultured with 25 μg/ml peptide and 5×10^4 fixed or fresh APCs. To fixate APCs, cells were incubated with 0.5% paraformaldehyde (Merck, Darmstadt, Germany) (pH7) for 5 min at room temperature (RT). The fixation reaction was stopped by adding 0.4M glycine (Sigma-Aldrich) and washing the cells in RPMI-10% FCS. Additionally, reactivity towards human TSHR-ECD protein (Chesapeake-PERL, Savage, Md., USA) was measured to identify epitopes. After 48 h, antigen-induced IL-2 production was measured by ELISA.
# [6] = co-medication MMI 500 μg daily + ATX-GD-459 15 nmol
compound,measurement,setting,value
"Cn1cc[nH]c1=S [MMI, methimazole]","effect on anti-TSHR antibody levels, MMI study","[1]; MMI 500 μg daily s.c. osmotic pump, 10^9 Ad-TSHR",had no effect
same,"effect on anti-TSHR IgG isotypes, MMI study","[1]; MMI 500 μg daily, 10^9 Ad-TSHR",had no effect
same,"changes in anti-TSHR IgG levels, model validation","[1]; MMI 50 or 500 μg/mouse/day s.c. pump for 4 weeks, Ad-TSHR week 0 and 3",no changes
same,"effect on antibody reducing capability of ATX-GD-459 (IgG isotypes), MMI study",[1]; [6],did not affect
same,"influence on antibody reducing capability of ATX-GD-459 (total IgG), MMI study",[1]; [6],did not influence
same,"effect on TSHR-specific splenocyte proliferation, MMI co-medication study",[2],significant reduction
same,"T4 levels, MMI 50 μg daily, model validation",Total thyroxine (T4); 50 μg dose,only showed a trend towards reduced T4 levels
same,"T4 levels, MMI 500 μg daily, model validation","Total thyroxine (T4); daily dose of 500 μg, both at 2 and 4 weeks after first immunisation",significantly reduced
same,"effect on serum T4 levels, MMI co-medication study","Total thyroxine (T4); week 5, MMI 500 μg daily, ATX-GD-459 15 nmol top dose, 10^9 Ad-TSHR",significantly reduced
"CC(C)NCC(O)COc1cccc2ccccc12 (centres unmarked) [propranolol, Propranolol hydrochloride]","Total T4 levels, propranolol co-medication study","Total thyroxine (T4); week 5, propranolol 10 mg/kg/day IP, ATX-GD-459 15 nmol, 10^10 Ad-TSHR",not affected
same,plasma levels of propranolol,[3],confirms pharmacological dose
"GLKMFPDLTKVYSTD (H-GLKMFPDLTKVYSTD-NH2) [Peptide 9B-N, TSHR peptide]","reduction of TSHR-induced T cell proliferation, LN samples",[4],33%
same,"reduction of TSHR-induced T cell proliferation, spleen samples",[4],41%
"KKGNLPNISRIYVSIDVTGKK (H-KKGNLPNISRIYVSIDVTGKK-NH2) [RNB-4K-GKK, modified TSHR apitope peptide]","apitope status (presentation by fixed APCs, IL-2 secretion)",[5],confirmed to be apitopes
"KKKKYVSIDVTLQQLESHKKK (H-KKKKYVSIDVTLQQLESHKKK-NH2) [Peptide 5D-K1, modified TSHR apitope peptide]","reduction of TSHR-induced T cell proliferation, LN samples",[4],60%
same,"reduction of TSHR-induced T cell proliferation, spleen samples",[4],43%
same,"apitope status (presentation by fixed APCs, IL-2 secretion)",[5],confirmed to be apitopes
